Data taken from ChEMBL document CHEMBL1137802, “Specific antioxidant activity of caffeoyl derivatives and other natural phenolic compounds: LDL protection against oxidation and decrease in the proinflammatory lysophosphatidylcholine production” (J Nat Prod, 2001).

Columns and labels:
Type in all cases: functional, cell-free
[1] = Antioxidant activity against Cu2+-induced lipid peroxidation in human plasma LDL assessed as maximal compound concentration at 10 umol/L preincubated for 1 hr before Cu2+ challenge measured after 270 mins relative to compound present at 0 min
[2] = Antioxidant activity against Cu2+-induced lipid peroxidation in human plasma LDL assessed as vitamin E consumption at 10 umol/L preincubated for 1 hr before Cu2+ challenge measured after 45 mins
[3] = Antioxidant activity against Cu2+-induced lipid peroxidation in human plasma LDL assessed as conjugated diene formation at 20 umol/L preincubated for 1 hr before Cu2+ challenge measured after 270 mins
[4] = Antioxidant activity against Cu2+-induced lipid peroxidation in human plasma LDL assessed as vitamin E consumption at 20 umol/L preincubated for 1 hr before Cu2+ challenge measured after 120 mins
[5] = Antioxidant activity against Cu2+-induced lipid peroxidation in human plasma LDL assessed as vitamin E consumption at 10 umol/L preincubated for 1 hr before Cu2+ challenge measured after 15 mins
[6] = Antioxidant activity against Cu2+-induced lipid peroxidation in human plasma LDL assessed as lysophosphatidylcholine formation at 10 umol/L preincubated for 1 hr before Cu2+ challenge measured after 360 mins
[7] = Antioxidant activity against Cu2+-induced lipid peroxidation in human plasma LDL assessed as lysophosphatidylcholine formation at 20 umol/L preincubated for 1 hr before Cu2+ challenge measured after 150 mins
[8] = Antioxidant activity against Cu2+-induced lipid peroxidation in human plasma LDL assessed as maximal compound concentration at 20 umol/L preincubated for 1 hr before Cu2+ challenge measured after 45 mins relative to compound present at 0 min
[9] = Antioxidant activity against Cu2+-induced lipid peroxidation in human plasma LDL assessed as maximal compound concentration at 20 umol/L preincubated for 1 hr before Cu2+ challenge measured after 30 mins relative to compound present at 0 min
[10] = Antioxidant activity against Cu2+-induced lipid peroxidation in human plasma LDL assessed as conjugated diene formation preincubated for 1 hr before Cu2+ challenge
[11] = Antioxidant activity against Cu2+-induced lipid peroxidation in human plasma LDL assessed as maximal compound concentration at 5 umol/L preincubated for 1 hr before Cu2+ challenge measured after 120 mins relative to compound present at 0 min
[12] = Antioxidant activity against Cu2+-induced lipid peroxidation in human plasma LDL assessed as vitamin E consumption at 5 umol/L preincubated for 1 hr before Cu2+ challenge measured after 30 mins
[13] = Antioxidant activity against Cu2+-induced lipid peroxidation in human plasma LDL assessed as vitamin E consumption at 20 umol/L preincubated for 1 hr before Cu2+ challenge measured after 15 mins
[14] = Antioxidant activity against Cu2+-induced lipid peroxidation in human plasma LDL assessed as conjugated diene formation at 5 umol/L preincubated for 1 hr before Cu2+ challenge measured after 60 mins
[15] = Antioxidant activity against Cu2+-induced lipid peroxidation in human plasma LDL assessed as conjugated diene formation at 20 umol/L preincubated for 1 hr before Cu2+ challenge measured after 360 mins
[16] = Antioxidant activity against Cu2+-induced lipid peroxidation in human plasma LDL assessed as lysophosphatidylcholine formation at 5 umol/L preincubated for 1 hr before Cu2+ challenge measured after 360 mins
[17] = Antioxidant activity against Cu2+-induced lipid peroxidation in human plasma LDL assessed as lysophosphatidylcholine formation at 5 umol/L preincubated for 1 hr before Cu2+ challenge measured after 120 mins
[18] = Antioxidant activity against Cu2+-induced lipid peroxidation in human plasma LDL assessed as maximal compound concentration at 5 umol/L preincubated for 1 hr before Cu2+ challenge measured after 15 mins relative to compound present at 0 min
[19] = Antioxidant activity against Cu2+-induced lipid peroxidation in human plasma LDL assessed as vitamin E consumption at 20 umol/L preincubated for 1 hr before Cu2+ challenge measured after 90 mins
[20] = Antioxidant activity against Cu2+-induced lipid peroxidation in human plasma LDL assessed as conjugated diene formation at 10 umol/L preincubated for 1 hr before Cu2+ challenge measured after 120 mins
[21] = Antioxidant activity against Cu2+-induced lipid peroxidation in human plasma LDL assessed as lysophosphatidylcholine formation at 10 umol/L preincubated for 1 hr before Cu2+ challenge measured after 180 mins
[22] = Antioxidant activity against Cu2+-induced lipid peroxidation in human plasma LDL assessed as maximal compound concentration at 20 umol/L preincubated for 1 hr before Cu2+ challenge measured after 90 mins relative to compound present at 0 min
[23] = Antioxidant activity against Cu2+-induced lipid peroxidation in human plasma LDL assessed as maximal compound concentration at 10 umol/L preincubated for 1 hr before Cu2+ challenge measured after 150 mins relative to compound present at 0 min
[24] = Antioxidant activity against Cu2+-induced lipid peroxidation in human plasma LDL assessed as maximal compound concentration at 5 umol/L preincubated for 1 hr before Cu2+ challenge measured after 210 mins relative to compound present at 0 min
[25] = Antioxidant activity against Cu2+-induced lipid peroxidation in human plasma LDL assessed as conjugated diene formation at 10 umol/L preincubated for 1 hr before Cu2+ challenge measured after 150 mins
[26] = Antioxidant activity against Cu2+-induced lipid peroxidation in human plasma LDL assessed as lysophosphatidylcholine formation at 20 umol/L preincubated for 1 hr before Cu2+ challenge measured after 90 mins
[27] = Antioxidant activity against Cu2+-induced lipid peroxidation in human plasma LDL assessed as conjugated diene formation at 10 umol/L preincubated for 1 hr before Cu2+ challenge measured after 360 mins
[28] = Antioxidant activity against Cu2+-induced lipid peroxidation in human plasma LDL assessed as conjugated diene formation at 20 umol/L preincubated for 1 hr before Cu2+ challenge measured after 210 mins
[29] = Antioxidant activity against Cu2+-induced lipid peroxidation in human plasma LDL assessed as conjugated diene formation at 20 umol/L preincubated for 1 hr before Cu2+ challenge measured after 90 mins
[30] = Antioxidant activity against Cu2+-induced lipid peroxidation in human plasma LDL assessed as lysophosphatidylcholine formation at 5 umol/L preincubated for 1 hr before Cu2+ challenge measured after 270 mins
[31] = Antioxidant activity against Cu2+-induced lipid peroxidation in human plasma LDL assessed as vitamin E consumption at 10 umol/L preincubated for 1 hr before Cu2+ challenge measured after 120 mins
[32] = Antioxidant activity against Cu2+-induced lipid peroxidation in human plasma LDL assessed as lysophosphatidylcholine formation at 5 umol/L preincubated for 1 hr before Cu2+ challenge measured after 90 mins
[33] = Antioxidant activity against Cu2+-induced lipid peroxidation in human plasma LDL assessed as vitamin E consumption at 10 umol/L preincubated for 1 hr before Cu2+ challenge measured after 180 mins
[34] = Antioxidant activity against Cu2+-induced lipid peroxidation in human plasma LDL assessed as lysophosphatidylcholine formation at 10 umol/L preincubated for 1 hr before Cu2+ challenge measured after 120 mins

CC(C)(Sc1cc(C(C)(C)C)c(O)c(C(C)(C)C)c1)Sc1cc(C(C)(C)C)c(O)c(C(C)(C)C)c1
Activity [1]: 15.8% | Activity [2]: 11% | Activity [3]: 2.6% | Activity [4]: 0% | Activity [5]: 51.8% | Activity [6]: 19.2% | Activity [7]: 1.3% | Activity [8]: 87.7% | Activity [9]: 91.8% | Activity [10]: Dose-dependent effect | Activity [11]: 56.5% | Activity [12]: 15.5% | Activity [13]: 38.2% | Activity [14]: 4.1% | Activity [15]: 2.3% | Activity [16]: 29.1% | Activity [17]: 10.6% | Activity [18]: 96% | Activity [19]: 0% | Activity [20]: 39.4% | Activity [21]: 6.2% | Activity [22]: 44.1% | Activity [23]: 19.8% | Activity [24]: 36.8% | Activity [25]: 77.2% | Activity [26]: 1.1% | Activity [27]: 100% | Activity [28]: 2.6% | Activity [29]: 0.7% | Activity [30]: 26.1% | Activity [31]: 0% | Activity [32]: 4.1% | Activity [33]: 0% | Activity [34]: 1.3%
